Source: ChEMBL document CHEMBL1144131, “The taxane diterpenoids” (J Nat Prod, 1999)
≈ marks a conversion by molar mass, not a printed value.

Each compound was assayed on P388 (assay: Cytotoxicity against mouse P388 cells).
Type: functional, cell-based
`CC(=O)O[C@@H]1C2=C(C)C(=O)C[C@@](O)([C@@H](OC(=O)c3ccccc3)[C@@H]3[C@]4(OC(C)=O)CO[C@@H]4C[C@H](O)[C@@]3(C)[C@H]1O)C2(C)C` gave an IC50 of 21 µg/mL (≈ 35.8 µM). `C=C1[C@@H](OC(=O)/C=C/c2ccccc2)C[C@H](OC(C)=O)[C@@]2(C)[C@@H](OC(C)=O)[C@H](OC(C)=O)C3=C(C)[C@@H](OC(C)=O)C[C@@H]([C@@H](O)[C@H]12)C3(C)C` showed an IC50 of 3.9 µg/mL (≈ 5.85 µM). With `CC(=O)O[C@H]1C[C@H]2OC[C@@]2(OC(C)=O)[C@H]2[C@H](OC(=O)c3ccccc3)[C@]3(C(C)(C)O)C[C@H](O)C(C)=C3[C@@H](O)[C@H](O)[C@]12C` the IC50 was 44 µg/mL (≈ 74.7 µM).
